Test results as given in patent US12156862B2, “Medicaments for the treatment of vasoconstriction related diseases or disorders” (Sulfateq B.V., priority 2017, dated 2024).

Columns and labels:
α1A adrenoceptor = target: T1, α1A adrenoceptor (Homo sapiens, UniProt P35348); assay: Radiolabeled prazosin displacement binding assay in α1A adrenoceptor transgenic CHO cells
T1 construct: expressed in transfected cells; host or cells: CHO-K1
T1 sequence (P35348 1-466): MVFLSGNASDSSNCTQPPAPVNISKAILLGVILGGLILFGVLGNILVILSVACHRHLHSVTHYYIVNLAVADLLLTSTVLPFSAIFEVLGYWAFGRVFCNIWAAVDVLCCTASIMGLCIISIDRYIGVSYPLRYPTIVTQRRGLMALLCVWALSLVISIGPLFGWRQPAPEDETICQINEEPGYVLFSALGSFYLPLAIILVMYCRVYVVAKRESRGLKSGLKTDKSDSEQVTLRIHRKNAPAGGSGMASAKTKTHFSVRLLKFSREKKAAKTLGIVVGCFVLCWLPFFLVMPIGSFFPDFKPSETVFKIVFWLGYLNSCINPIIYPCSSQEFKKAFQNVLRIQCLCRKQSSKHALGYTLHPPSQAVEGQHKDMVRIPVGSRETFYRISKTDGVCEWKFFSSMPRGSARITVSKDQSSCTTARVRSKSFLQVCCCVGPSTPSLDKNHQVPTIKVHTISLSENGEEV
From the text: We therefore explored whether SUL-150 could directly interact with the α1 adrenoceptor as a receptor antagonist.

[1] = target: T2, human α1 adrenoceptor subtype D (Homo sapiens, UniProt P25100); assay: Phenylephrine-induced intracellular calcium (FLIPR Calcium 6) in CHO cells, α1D; format: cell-based; details: in words
T2 construct: expressed in transfected cells; host or cells: CHO-K1
T2 sequence (P25100 1-572): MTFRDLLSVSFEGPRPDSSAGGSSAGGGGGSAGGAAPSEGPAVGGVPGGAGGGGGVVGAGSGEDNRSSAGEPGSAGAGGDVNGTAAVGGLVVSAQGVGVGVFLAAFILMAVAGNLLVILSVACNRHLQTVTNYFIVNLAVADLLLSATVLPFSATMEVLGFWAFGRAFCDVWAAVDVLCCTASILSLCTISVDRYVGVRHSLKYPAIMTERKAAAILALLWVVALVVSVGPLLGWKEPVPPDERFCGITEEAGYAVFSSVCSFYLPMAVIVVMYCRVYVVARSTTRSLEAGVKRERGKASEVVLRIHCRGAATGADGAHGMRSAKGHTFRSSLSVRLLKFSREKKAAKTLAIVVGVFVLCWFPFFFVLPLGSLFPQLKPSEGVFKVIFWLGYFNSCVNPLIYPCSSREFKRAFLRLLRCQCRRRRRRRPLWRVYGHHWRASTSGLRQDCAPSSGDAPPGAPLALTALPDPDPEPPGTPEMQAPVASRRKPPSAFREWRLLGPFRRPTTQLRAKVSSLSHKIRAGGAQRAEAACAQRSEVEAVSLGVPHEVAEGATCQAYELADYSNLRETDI
Experimental: (§1) CHO-K1 cells were stably transfected with a plasmid containing human al-AR subtypes A, B and D in separate cell lines in DMEM-F12 medium with 10% FBS, 1% penicillin-streptomycin and 200 μg/mL Geneticin (G418, Invitrogen, Carlsbad, CA).
(§2) On the next day, CHO cells were treated with either vehicle (0.1% DMSO) or SUL-121 enantiomers for 30 min at 37° C. and stimulated with a 3-fold dilution series of PE (20 μM-100 pM). [Ca^2], was measured using the fluorescent FLIPR Calcium 6 assay kit (Molecular Devices) in immortalized CHO cells stably expressing the α1 adrenoceptor.
(§3) Initially, calcium responses induced by non-cumulative concentration series of phenylephrine were investigated using fluorescent measurements in α1A adrenoceptor-overexpressing CHO cells treated with SUL-150 and SUL-151 (FIG. 4). Fluorescent measurement data was processed and analyzed in SoftMax Pro 7 and expressed as % of baseline AUC with a 3-fold multiplier using an average of first 10 measurement points as baseline.

[2] = target: T3, human α1 adrenoceptor subtype B (Homo sapiens, UniProt P35368); assay: Phenylephrine-induced intracellular calcium (FLIPR Calcium 6) in CHO cells, α1B; format: cell-based; details: in words
T3 construct: expressed in transfected cells; host or cells: CHO-K1
T3 sequence (P35368 1-520): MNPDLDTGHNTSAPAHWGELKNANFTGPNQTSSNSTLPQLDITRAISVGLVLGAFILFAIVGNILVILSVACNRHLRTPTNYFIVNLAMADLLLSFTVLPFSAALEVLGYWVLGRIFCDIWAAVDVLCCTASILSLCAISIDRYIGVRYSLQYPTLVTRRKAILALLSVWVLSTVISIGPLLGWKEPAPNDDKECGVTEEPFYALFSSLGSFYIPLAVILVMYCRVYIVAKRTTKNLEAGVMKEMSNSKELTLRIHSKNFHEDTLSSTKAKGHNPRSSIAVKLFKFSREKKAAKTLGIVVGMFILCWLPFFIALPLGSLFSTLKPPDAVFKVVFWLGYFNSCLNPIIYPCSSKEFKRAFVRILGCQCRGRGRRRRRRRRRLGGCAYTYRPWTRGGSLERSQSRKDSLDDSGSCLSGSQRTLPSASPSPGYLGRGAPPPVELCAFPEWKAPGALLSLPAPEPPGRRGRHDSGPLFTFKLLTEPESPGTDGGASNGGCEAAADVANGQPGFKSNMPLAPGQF
Experimental: as §1, §2, §3

[3] = target: T4, human α1 adrenoceptor subtype A (Homo sapiens, UniProt P35348); assay: Phenylephrine-induced intracellular calcium (FLIPR Calcium 6) in CHO cells, α1A; format: cell-based
T4 construct: expressed in transfected cells; host or cells: CHO-K1
T4 sequence (P35348 1-466): T1 sequence (P35348 1-466)
Experimental: as §1, §2, §3

α1 adrenoceptor = assay: Phenylephrine-induced constriction of isolated porcine intrarenal arteries (myography)
Experimental: Porcine kidneys were obtained from a local slaughterhouse (Kroon Vlees, Gotenburgweg 30, 9723 TM Groningen. The Netherlands) and transported on ice in normal physiological Krebs buffer containing 120 mM NaCl, 6 mM KCl, 2.5 mM CaCl2×2H2O, 1.2 mM MgCl2×6H2O, 1.2 mM NaH2PO4×H2O, 25 mM NaHCO3 and 11.4 mM D-(+)-Glucose monohydrate (all ingredients were purchased from Merck) in ultrapure water.
The renal artery tree was dissected from the kidney, cleaned of surrounding connective tissue and cut into equally-sized ring segments (2 mm in length). In some rings, endothelium denudation was performed by gentle rubbing of the intimal surface with a paper clip. Rings were mounted in organ baths as described previously (Buikema et al., 2000). Arterial rings were washed thoroughly by replacing Krebs buffer and allowed to equilibrate for a period of 60 min under 1.4 g of resting tension before they were assessed for viability by inducing 2 subsequent constrictions with KCl (60 mM). […] After washout and stabilization, rings were treated for 30 minutes by incubation with vehicle (0.1% DMSO), SUL-121, SUL-150 or SUL-151, followed by subsequent incubation with cumulative doses of phenylephrine.
Dose-dependent constriction responses to phenylephrine (10^−8M-10^−4M) were recorded in said isolated porcine intrarenal arteries. Buffer was warmed to 37° C. and aerated with 95% O2 and 5% CO2 before use.
Vascular constriction responses are expressed as percentage of final response to KCl. Data are expressed as mean±SEM. *p<0.05.
To explore the effects of the enantiomers of (6-hydroxy-2,5,7,8-tetramethylchroman-2-yl)(piperazin-1-yl)methanone (SUL-150 and SUL-151) on constriction of isolated porcine intrarenal arteries, cumulative dose response curves to the α1 adrenoceptor agonist phenylephrine (PE) were constructed in the presence and absence of SUL-150 and SUL-151.

concentrations at which [7-Methoxy-3H]-prazosin is displaced (α1A adrenoceptor): higher than 10 μM
effect on PE-induced calcium transients, α1 adrenoceptor subtype D [1]: did not affect calcium transients
effect on PE-induced calcium transients, α1 adrenoceptor subtype B [2]: did not affect calcium transients
logEC50 of phenylephrine-induced calcium influx, α1A ([3]; 10 μM test compound): −8.09 ± 0.10
logEC50 of phenylephrine-induced calcium influx, α1A ([3]; 30 μM test compound): −8.09 ± 0.11
logEC50 of phenylephrine-induced calcium influx, α1A ([3]; 100 μM test compound): −7.98 ± 0.10
effect on PE-induced calcium transients, α1 adrenoceptor subtype A ([3]; in words): did not affect calcium transients
Compound: Cc1c(C)c2c(c(C)c1O)CCC(C)(C(=O)N1CCNCC1)O2 (stereo not shown) [SUL-151, (6-hydroxy-2,5,7,8-tetramethylchroman-2-yl)(piperazin-1-yl)methanone]
logEC50 of phenylephrine-induced constriction responses (α1 adrenoceptor; 10 μM test compound): −5.82 ± 0.05^
logEC50 of phenylephrine-induced constriction responses (α1 adrenoceptor; 30 μM test compound): −5.89 ± 0.04
logEC50 of phenylephrine-induced constriction responses (α1 adrenoceptor; 100 μM test compound): −5.77 ± 0.04^
